Experiments:
[1] = molecular target: human Gal-3 (hGal-3) (Homo sapiens (Human), UniProt P17931); test: Competitive binding assay: biotinylated hGal-3 to microplate-adsorbed asialofetuin (ASF); conditions: Activity on hGal-3; binding to ASF-coated plates, 3 hours at 4° C.; mean values
Procedure, shortened: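 Biotinylated hGal-3 (300-1000 ng/mL) binding to plate-adsorbed asialofetuin, with DMSO-diluted compound added, incubated 3 h at 4 °C. After washing, bound protein detected with streptavidin-peroxidase (80 ng/mL, 1 h, 4 °C) and ABTS substrate, read spectrophotometrically. IC50 given as mean of several measurements.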

[2] = molecular target: human Gal-1 (hGal-1) (Homo sapiens, UniProt P09382); test: Competitive binding assay: biotinylated hGal-1 to microplate-adsorbed asialofetuin (ASF); conditions: Activities on hGal-1; binding to ASF-coated plates, 3 hours at 4° C.; mean values; read-out: Gal-1 IC50
Sequence of human Gal-1 (hGal-1) (P09382 2-135 limits assumed): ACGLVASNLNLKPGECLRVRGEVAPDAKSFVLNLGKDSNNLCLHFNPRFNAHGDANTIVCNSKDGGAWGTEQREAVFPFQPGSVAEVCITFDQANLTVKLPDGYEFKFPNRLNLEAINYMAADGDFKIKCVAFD
Procedure, shortened: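 Plate-adsorbed asialofetuin is incubated 3 h at 4 °C with biotinylated hGal-1, optionally its all-serine-substituted cysteine variant, plus compound dilutions. ABTS color after 1 h streptavidin-peroxidase (80 ng/mL) at 4 °C reports binding. Reported IC50 is a mean across repeat runs.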

Sequence of human Gal-3 (hGal-3) (P17931 whole entry): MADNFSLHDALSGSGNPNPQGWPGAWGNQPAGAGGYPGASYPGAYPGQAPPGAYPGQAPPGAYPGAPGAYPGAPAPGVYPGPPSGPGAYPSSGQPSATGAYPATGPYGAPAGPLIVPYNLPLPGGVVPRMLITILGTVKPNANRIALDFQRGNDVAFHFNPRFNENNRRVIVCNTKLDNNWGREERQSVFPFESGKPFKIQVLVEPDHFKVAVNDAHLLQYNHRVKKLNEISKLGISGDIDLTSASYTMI

Compound	IC50 [1] [nM]	IC50 [2] [nM]
CO[C@@H]1[C@@H](n2cc(-c3cc(F)c(F)c(F)c3)nn2)[C@@H](O)[C@@H](CO)O[C@@H]1CC1=NOC2(CCC(NC3CC3)CC2)C1 (stereo partly drawn) [Example 2.16, (2R,3R,4S,5R,6R)-6-((8-(cyclopropylamino)-1-oxa-2-azaspiro[4.5]dec-2-en-3-yl)methyl)-2-(hydroxymethyl)-5-methoxy-4-(4-(3,4,5-trifluorophenyl)-1H-1,2,3-triazol-1-yl)tetrahydro-2H-pyran-3-ol]	240	2400
CO[C@@H]1[C@@H](n2cc(-c3cc(F)c(F)c(F)c3)nn2)[C@@H](O)[C@@H](CO)O[C@@H]1CC1=NOC2(CCC(NCC(F)(F)F)CC2)C1 (stereo partly drawn) [Example 2.17, (2R,3R,4S,5R,6R)-2-(hydroxymethyl)-5-methoxy-6-((8-((2,2,2-trifluoroethyl)amino)-1-oxa-2-azaspiro[4.5]dec-2-en-3-yl)methyl)-4-(4-(3,4,5-trifluorophenyl)-1H-1,2,3-triazol-1-yl)tetrahydro-2H-pyran-3-ol]	210	1400
CO[C@@H]1[C@@H](n2cc(-c3cc(F)c(F)c(F)c3)nn2)[C@@H](O)[C@@H](CO)O[C@@H]1CC1=NOC2(CCC(=NO)CC2)C1 (stereo partly drawn) [Example 2.18, 3-(((2R,3R,4S,5R,6R)-5-hydroxy-6-(hydroxymethyl)-3-methoxy-4-(4-(3,4,5-trifluorophenyl)-1H-1,2,3-triazol-1-yl)tetrahydro-2H-pyran-2-yl)methyl)-1-oxa-2-azaspiro[4.5]dec-2-en-8-one oxime]	320	2900
CO[C@@H]1[C@@H](n2cc(-c3cc(F)c(F)c(F)c3)nn2)[C@@H](O)[C@@H](CO)O[C@@H]1CC1=NOC2(CCC(N3CCOCC3)CC2)C1 (stereo partly drawn) [Example 2.19, (2R,3R,4S,5R,6R)-2-(hydroxymethyl)-5-methoxy-6-((8-morpholino-1-oxa-2-azaspiro[4.5]dec-2-en-3-yl)methyl)-4-(4-(3,4,5-trifluorophenyl)-1H-1,2,3-triazol-1-yl)tetrahydro-2H-pyran-3-ol]	390	1700
CO[C@@H]1[C@@H](n2cc(-c3cc(F)c(F)c(F)c3)nn2)[C@@H](O)[C@@H](CO)O[C@@H]1CC1=NO[C@]2(CC[C@H](NCC(F)F)CC2)C1 [Example 2.20, (2R,3R,4S,5R,6R)-6-(((5r,8R)-8-((2,2-difluoroethyl)amino)-1-oxa-2-azaspiro[4.5]dec-2-en-3-yl)methyl)-2-(hydroxymethyl)-5-methoxy-4-(4-(3,4,5-trifluorophenyl)-1H-1,2,3-triazol-1-yl)tetrahydro-2H-pyran-3-ol]	110	1800
CO[C@@H]1[C@@H](n2cc(-c3cc(F)c(F)c(F)c3)nn2)[C@@H](O)[C@@H](CO)O[C@@H]1CC1=NO[C@]2(CC[C@@H](NCC(F)F)CC2)C1 [Example 2.21, (2R,3R,4S,5R,6R)-6-(((5s,8S)-8-((2,2-difluoroethyl)amino)-1-oxa-2-azaspiro[4.5]dec-2-en-3-yl)methyl)-2-(hydroxymethyl)-5-methoxy-4-(4-(3,4,5-trifluorophenyl)-1H-1,2,3-triazol-1-yl)tetrahydro-2H-pyran-3-ol]	380	1600
CO[C@@H]1[C@@H](n2cc(-c3cc(F)c(F)c(F)c3)nn2)[C@@H](O)[C@@H](CO)O[C@@H]1CC1=NO[C@]2(CC[C@H](NC3CC3)CC2)C1 [Example 2.22, (2R,3R,4S,5R,6R)-6-(((5r,8R)-8-(cyclopropylamino)-1-oxa-2-azaspiro[4.5]dec-2-en-3-yl)methyl)-2-(hydroxymethyl)-5-methoxy-4-(4-(3,4,5-trifluorophenyl)-1H-1,2,3-triazol-1-yl)tetrahydro-2H-pyran-3-ol]	140	1300
CO[C@@H]1[C@@H](n2cc(-c3cc(F)c(F)c(F)c3)nn2)[C@@H](O)[C@@H](CO)O[C@@H]1CC1=NO[C@]2(CC[C@@H](NC3CC3)CC2)C1 [Example 2.23, (2R,3R,4S,5R,6R)-6-(((5s,8S)-8-(cyclopropylamino)-1-oxa-2-azaspiro[4.5]dec-2-en-3-yl)methyl)-2-(hydroxymethyl)-5-methoxy-4-(4-(3,4,5-trifluorophenyl)-1H-1,2,3-triazol-1-yl)tetrahydro-2H-pyran-3-ol]	590	1600
Cc1ccc(-c2cn([C@H]3[C@@H](O)[C@@H](CO)O[C@H](CC4=NOC5(CCOCC5)C4)[C@@H]3OCC(=O)O)nn2)c(F)c1F [Example 2.24, 2-(((2R,3R,4S,5R,6R)-2-((1,8-dioxa-2-azaspiro[4.5]dec-2-en-3-yl)methyl)-4-(4-(2,3-difluoro-4-methylphenyl)-1H-1,2,3-triazol-1-yl)-5-hydroxy-6-(hydroxymethyl)tetrahydro-2H-pyran-3-yl)oxy)acetic acid]	80	6700
Cc1ccc(-c2cn([C@H]3[C@@H](O)[C@@H](CO)O[C@H](CC4=NOC5(CCCCC5)C4)[C@@H]3OCC(=O)O)nn2)c(F)c1F [Example 2.25, 2-(((2R,3R,4S,5R,6R)-2-((1-oxa-2-azaspiro[4.5]dec-2-en-3-yl)methyl)-4-(4-(2,3-difluoro-4-methylphenyl)-1H-1,2,3-triazol-1-yl)-5-hydroxy-6-(hydroxymethyl)tetrahydro-2H-pyran-3-yl)oxy)acetic acid]	37	3700
O=C(O)CO[C@@H]1[C@@H](n2cc(-c3cc(F)c(F)c(F)c3)nn2)[C@@H](O)[C@@H](CO)O[C@@H]1CC1=NOC2(CCCCC2)C1 [Example 2.26, 2-(((2R,3R,4S,5R,6R)-2-((1-oxa-2-azaspiro[4.5]dec-2-en-3-yl)methyl)-5-hydroxy-6-(hydroxymethyl)-4-(4-(3,4,5-trifluorophenyl)-1H-1,2,3-triazol-1-yl)tetrahydro-2H-pyran-3-yl)oxy)acetic acid]	90	3500
CO[C@@H]1[C@@H](n2cc(-c3cc(F)c(F)c(F)c3)nn2)[C@@H](O)[C@@H](CO)O[C@@H]1CC1=NOC2(CCN(C(=O)NC(C)(C)C)CC2)C1 [Example 2.28, N-(tert-butyl)-3-(((2R,3R,4S,5R,6R)-5-hydroxy-6-(hydroxymethyl)-3-methoxy-4-(4-(3,4,5-trifluorophenyl)-1H-1,2,3-triazol-1-yl)tetrahydro-2H-pyran-2-yl)methyl)-1-oxa-2,8-diazaspiro[4.5]dec-2-ene-8-carboxamide]	140	1700
CO[C@@H]1[C@@H](n2cc(-c3cc(F)c(F)c(F)c3)nn2)[C@@H](O)[C@@H](CO)O[C@@H]1CC1=NOC2(CCN(C)CC2)C1 [Example 2.29, (2R,3R,4S,5R,6R)-2-(hydroxymethyl)-5-methoxy-6-((8-methyl-1-oxa-2,8-diazaspiro[4.5]dec-2-en-3-yl)methyl)-4-(4-(3,4,5-trifluorophenyl)-1H-1,2,3-triazol-1-yl)tetrahydro-2H-pyran-3-ol]	380	4800
CO[C@@H]1[C@@H](n2cc(-c3cc(F)c(F)c(F)c3)nn2)[C@@H](O)[C@@H](CO)O[C@@H]1CC1=NOC2(CCN(C(C)=O)CC2)C1 [Example 2.30, 1-(3-(((2R,3R,4S,5R,6R)-5-hydroxy-6-(hydroxymethyl)-3-methoxy-4-(4-(3,4,5-trifluorophenyl)-1H-1,2,3-triazol-1-yl)tetrahydro-2H-pyran-2-yl)methyl)-1-oxa-2,8-diazaspiro[4.5]dec-2-en-8-yl)ethan-1-one]	280	2800
CO[C@@H]1[C@@H](n2cc(-c3cc(F)c(F)c(F)c3)nn2)[C@@H](O)[C@@H](CO)O[C@@H]1CC1=NOC2(CCN(S(C)(=O)=O)CC2)C1 [Example 2.31, (2R,3R,4S,5R,6R)-2-(hydroxymethyl)-5-methoxy-6-((8-(methylsulfonyl)-1-oxa-2,8-diazaspiro[4.5]dec-2-en-3-yl)methyl)-4-(4-(3,4,5-trifluorophenyl)-1H-1,2,3-triazol-1-yl)tetrahydro-2H-pyran-3-ol]	530	3500
CO[C@@H]1[C@@H](n2cc(-c3cc(F)c(F)c(F)c3)nn2)[C@@H](O)[C@@H](CO)O[C@@H]1CN1CC2(CCN(C(=O)OC(C)(C)C)CC2)OC1=O [Example 3.01, tert-butyl 3-(((2R,3R,4S,5R,6R)-5-hydroxy-6-(hydroxymethyl)-3-methoxy-4-(4-(3,4,5-trifluorophenyl)-1H-1,2,3-triazol-1-yl)tetrahydro-2H-pyran-2-yl)methyl)-2-oxo-1-oxa-3,8-diazaspiro[4.5]decane-8-carboxylate]	120	2700
CO[C@@H]1[C@@H](n2cc(-c3ccc(C)c(F)c3F)nn2)[C@@H](O)[C@@H](CO)O[C@@H]1CN1CC2(CCCCC2)OC1=O [Example 3.02, 3-(((2R,3R,4S,5R,6R)-4-(4-(2,3-difluoro-4-methylphenyl)-1H-1,2,3-triazol-1-yl)-5-hydroxy-6-(hydroxymethyl)-3-methoxytetrahydro-2H-pyran-2-yl)methyl)-1-oxa-3-azaspiro[4.5]decan-2-one]	36	1400
CO[C@@H]1[C@@H](n2cc(-c3ccc(C)c(F)c3F)nn2)[C@@H](O)[C@@H](CO)O[C@@H]1CN1CC2(CCOCC2)OC1=O [Example 3.03, 3-(((2R,3R,4S,5R,6R)-4-(4-(2,3-difluoro-4-methylphenyl)-1H-1,2,3-triazol-1-yl)-5-hydroxy-6-(hydroxymethyl)-3-methoxytetrahydro-2H-pyran-2-yl)methyl)-1,8-dioxa-3-azaspiro[4.5]decan-2-one]	90	2300
